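Cultured in 96-well plates, cells were exposed to test compound for 48 hours across five concentrations. GI50 is the concentration that inhibits growth by half.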 The source made the active and inactive calls. No stated cut-off is given here; in the data, active = GI50 up to about 1.1 µM and inactive = higher.
Legend:
Assay in all cases: NCI tumour cell line growth inhibition, 48 h
A498 = test system: A498
CCRF-CEM = test system: CCRF-CEM
COLO 205 = test system: COLO 205
EKVX = test system: EKVX
HCT-116 = test system: HCT-116
HOP-62 = test system: HOP-62
HOP-92 = test system: HOP-92
HT-29 = test system: HT-29
LOX IMVI = test system: LOX IMVI
M14 = test system: M14
MDA-MB-231 = test system: MDA-MB-231
MOLT-4 = test system: MOLT-4
NCI-H226 = test system: NCI-H226
NCI-H522 = test system: NCI-H522
PC-3 = test system: PC-3
RPMI-8226 = test system: RPMI-8226
SK-MEL-2 = test system: SK-MEL-2
SNB-19 = test system: SNB-19
SR = test system: SR
UACC-62 = test system: UACC-62

Measured: GI50

COC12OC3(C4OC41)C(C(=O)O[C@H]3CO[Si](C)(C)C(C)(C)C)C2C(=O)Oc1ccccc1 (stereo not given in full)
inactive: A498 > 100 µM | CCRF-CEM 38.1 µM | COLO 205 > 100 µM | EKVX > 100 µM | HCT-116 > 100 µM | HOP-62 > 100 µM | HOP-92 > 100 µM | HT-29 > 100 µM | LOX IMVI > 100 µM | M14 > 100 µM | MDA-MB-231 57.3 µM | MOLT-4 > 100 µM | NCI-H226 > 100 µM | NCI-H522 > 100 µM | PC-3 > 100 µM | RPMI-8226 91 µM | SK-MEL-2 > 100 µM | SNB-19 > 100 µM | SR > 100 µM | UACC-62 > 100 µM

COc1ccc(-c2c(-c3ccccc3)c(C)c3ccccn23)cc1
inactive: A498 > 100 µM | CCRF-CEM 28.2 µM | COLO 205 80.4 µM | EKVX 99.5 µM | HCT-116 72.3 µM | HOP-62 > 100 µM | HOP-92 > 100 µM | HT-29 33.4 µM | LOX IMVI 83.6 µM | M14 > 100 µM | MDA-MB-231 > 100 µM | MOLT-4 59.6 µM | NCI-H226 > 100 µM | NCI-H522 57.7 µM | PC-3 84.3 µM | RPMI-8226 47.6 µM | SK-MEL-2 33 µM | SNB-19 > 100 µM | SR 26.4 µM | UACC-62 > 100 µM

C[N+]1(C)CN(c2ccccc2)C2(CCN(CCCC(=O)c3cccs3)CC2)C1=O
inactive: A498 > 100 µM | CCRF-CEM 68.4 µM | COLO 205 48 µM | EKVX > 100 µM | HCT-116 58.9 µM | HOP-62 33.4 µM | HOP-92 35.7 µM | HT-29 31.8 µM | LOX IMVI 58.1 µM | M14 23.2 µM | MDA-MB-231 72.6 µM | MOLT-4 71.6 µM | NCI-H226 > 100 µM | NCI-H522 > 100 µM | PC-3 > 100 µM | RPMI-8226 47.3 µM | SK-MEL-2 > 100 µM | SNB-19 > 100 µM | SR 60 µM | UACC-62 > 100 µM

Source: ChEMBL document CHEMBL1201862, “PubChem BioAssay data set” (2004)
